The values that follow come from PubChem BioAssay (NCI).

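In this assay, cells in 96-well plates receive the compound at five concentrations for 48 hours. Endpoints are linearly interpolated between the surrounding concentrations. Definition used: TGI = concentration required for complete inhibition of growth.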

The test system of one assay is P388/ADR leukemia. The experiment in a line: NCI tumour cell line growth inhibition, 48 h.
A further assay relates to P388 leukemia. In words: NCI tumour cell line growth inhibition, 48 h.

For `COC(=O)C[C@](O)(CCCC(C)(C)O)C(=O)O[C@@H]1C(OC)=C[C@]23CCCN2CCc2cc4c(cc2[C@H]13)OCO4`, the TGI came to 1350 nM in the assay on P388/ADR leukemia and 10.1 nM in the assay with P388 leukemia.
For the compound `COc1cccc2c1C(=O)c1c(O)c3c(c(O)c1C2=O)C[C@@](O)(C(=O)CO)C[C@@H]3OC1CC(N)CC(C)O1` (some centres undefined), the TGI in the assay with P388/ADR leukemia came to 2960 nM; with P388 leukemia, 588 nM.
